How the values were obtained:
pseudocholinesterase = biological target: T1, pseudocholinesterase (Homo sapiens, UniProt P06276); assay: Inhibition of human plasma pseudocholinesterase (PChE) activity (Test Method 1); format: biochemical; settings: 30 min preincubation
T1 construct: a 100 μl aliquot of human plasma; from tissue; host or cells: human plasma (EDTA blood, stored frozen)
Description: The following method was used to determine the relative inhibition of pseudocholinesterase and acetylcholinesterase by compounds of the present invention.
Plasma (Source of Pseudocholinesterase Enzyme)
Human Plasma was obtained from blood which was collected in ethylenediaminetetraacetic acid (EDTA) treated tubes. Collected plasma was stored frozen at -20° C. until use.
The buffer/chromogen solution was 0.25 mM 5,5'-dithiobis-[2-nitrobenzoic acid] (chromogen), 50 mM phosphate buffer, pH 7.2. In making up the buffer/chromogen solution and to keep it as colorless as possible, the phosphate buffer was first adjusted to pH 7.1 with NaOH; the chromogen was then added and dissolved; the pH was adjusted to 7.2; and the final volume was adjusted with addition of Milli-Q water. 5,5'-dithiobis-(2-nitrobenzoic acid) was obtained from Sigma Chemicals, St. Louis, MO.
The substrate solution for the pseudocholinesterase assay was 156 mM S-butyrylthiocholine iodide, and the substrate solution for the acetylcholinesterase assay was 156 mM S-acetylthiocholine iodide. Both substrate compounds were obtained from Sigma Chemicals.
Test Compound Stock Solutions
Solutions of all test compounds were made up at 2 μM, 20 μM, and 200 μM concentrations (in 0.9% saline solution) except as noted where lower concentrations were necessary because of decreased solubility of the compound in saline solution.
Pseudocholinesterase (PChE) Assay
In three separate tubes, a 100 μl aliquot of either 0.9% saline solution, 2 μM test compound solution, or 20 μM test compound solution was mixed with a 100 μl aliquot of human plasma, and the tubes were placed in a 35° C. water bath. Four cuvettes, each containing 3 ml buffer/chromogen solution mixed with 100 μl substrate solution (156 mM S-butyrylthiocholine iodide), had been placed in a heated cuvette holder (35° C.) in a Beckman DU-8B Spectrophotometer (Beckman Instruments). After the temperature of the buffer/chromogen/substrate solution in the cuvette had equilibrated for about 10 minutes, and after 0 or 30 minutes incubation of the plasma/test compound solution, a 25 μl aliquot of the plasma/test compound solutions was added to the corresponding cuvettes numbered 2-4. Cuvette #1 remained a blank. After mixing, the net absorbance of each cuvette was determined at 405 nm every 35 seconds for ten readings. From a plot of net absorbance versus time, the initial linear portion of the curve was determined, and a rate of absorbance change per minute was calculated. The positive control (100% PChE activity) was the plasma/saline solution.
Each compound was tested for its ability to inhibit plasma pseudocholinesterase activity and acetylcholinesterase activity. Because of variation in the time points in the linear portion of the curve, inhibition values below 10-15% and higher than 85-90% are nearly indistinguishable from 0% and 100%, respectively.

[1] = tested on: Hyperlipidemic Guinea Pigs; assay: Multiple dose study in hyperlipidemic guinea pigs: plasma LDL/HDL ratio by lipoprotein electrophoresis (Test Method 2, Example 29); format: in vivo, guinea pig; settings: 2.5 mg/kg i.p. once daily
Excerpt: Male Hartley guinea pigs (Elm Hill Breeding Labs., Chelmsford, MA or Charles River, Wilmington, MA) was used in all experiments unless otherwise specified. The animals were maintained on a normal diet of rabbit pellets (Purina Rabbit Chow 5321, Ralston Purina, St. Louis, MO) and water containing 0.1% ascorbic acid ad libitum. For special studies in the hyperlipidemic guinea pig model, the animals were maintained on the high cholesterol diet described in this report and water containing 0.1% ascorbic acid ad libitum.
Individual animals were identified by ear and cage markings. The dose of drug or placebo was adjusted daily for changes in the weight of the guinea pigs. Blood samples were collected in EDTA Vacutainers by open chest cardiac puncture under carbon dioxide anesthesia from guinea pigs which had been fasted overnight. The animals were then sacrificed by CO2 inhalation. Blood samples were centrifuged at 2000 rpm for 15 min. in an IEC centrifuge (International Equipment Co., Boston, MA) with a 240 rotor for isolation of plasma. Lipoprotein analyses of plasma were carried out on the same day as the blood collection. Assays of pseudocholinesterase activity were carried out within a week of blood collection on plasma samples which had been stored at 4° C.
Freshly prepared samples of EDTA plasma were analyzed for lipoproteins with the Redi-Disc Lipoprotein Electrophoresis Kit (Miles Laboratories, Elkhart, IN) by the procedure recommended in the package insert supplied in the kit.
Redi-Disc Lipoprotein Gel Tubes, polyacrylamide 3%, buffer, preservative.
Redi-Disc Lipoprotein Loading Gel, acrylamide 2.5 g/dl., N,N'-methylenebisacrylamide 0.6 g/dl, sudan black B 13 mg/dl, catalyst, stabilizer, buffer.
Redi-Disc Lipoprotein Buffer, Trishydroxymethylaminomethane 27% w/w, boric acid 73% w/w, pH of solution 7.4-7.9 (11 g diluted to 1200 ml with water).
The gel tubes were removed from the storage buffer and shaken to remove excess buffer. A 25 μl aliquot of plasma was added to each tube and mixed with 200 μl of loading gel. The loading gel was photopolymerized for 30-40 min. under a fluorescent light. The gel tubes were placed in the electrophoresis apparatus (Buchler Instruments, Fort Lee, NJ) and Redi-Disc Liproprotein Buffer was then added to the upper and lower chambers of the apparatus. The current was adjusted to 5 mA per gel tube. Electrophoresis was stopped when the HDL band was about 4-5 mm from the bottom of the gel tube.
The gels were stored in water for at least 30 min. following electrophoresis to allow the lipoprotein zones to spread. The gels were scanned at 615 nm in either a Beckman Acta C111 spectrophotometer or a Beckman DU-8B spectrophotometer. The areas of the lipoprotein peaks (VLDL, LDL, and HDL) were determined by gravimetric analysis (cut and weighed) on the Acta C111 or by electronic integration on the DU-8B.
A 1:15 mixture of cholesterol:corn oil was prepared by adding 25 g of USP cholesterol (Sigma Chemical Company, St. Louis, MO) to 375 g of corn oil (Mazola, Best Foods, CPC International, Inc., Englewood Cliffs, NJ). The mixture was stirred, sonicated, and heated in a hot water bath until the cholesterol completely dissolved. It was necessary to keep the mixture warm (50°-60° C.) in order to prevent congealing.
Batches of feed were prepared by adding 160 g of the cholesterol-corn oil solution to 840 g of Purina Rabbit Chow 5321. The pellets and lipid mixture were thoroughly mixed in a 2-liter or 3-liter Erlenmeyer flask to ensure uniform coating of the pellets. The feed was then stored at room temperature until needed.
Two groups of male Hartley Guinea pigs were maintained on the high cholesterol diet described above and water containing 0.1% ascorbic acid ad libitum. One group was treated once daily with a freshly prepared solution of test compound 4, N-(diaminophosphinyl)-4-fluorobenzamide, (1.0 mg/ml in 0.9% saline solution) at 2.5 mg/kg by intraperitoneal injection for 14 days. […]

T1 sequence (P06276 29-602): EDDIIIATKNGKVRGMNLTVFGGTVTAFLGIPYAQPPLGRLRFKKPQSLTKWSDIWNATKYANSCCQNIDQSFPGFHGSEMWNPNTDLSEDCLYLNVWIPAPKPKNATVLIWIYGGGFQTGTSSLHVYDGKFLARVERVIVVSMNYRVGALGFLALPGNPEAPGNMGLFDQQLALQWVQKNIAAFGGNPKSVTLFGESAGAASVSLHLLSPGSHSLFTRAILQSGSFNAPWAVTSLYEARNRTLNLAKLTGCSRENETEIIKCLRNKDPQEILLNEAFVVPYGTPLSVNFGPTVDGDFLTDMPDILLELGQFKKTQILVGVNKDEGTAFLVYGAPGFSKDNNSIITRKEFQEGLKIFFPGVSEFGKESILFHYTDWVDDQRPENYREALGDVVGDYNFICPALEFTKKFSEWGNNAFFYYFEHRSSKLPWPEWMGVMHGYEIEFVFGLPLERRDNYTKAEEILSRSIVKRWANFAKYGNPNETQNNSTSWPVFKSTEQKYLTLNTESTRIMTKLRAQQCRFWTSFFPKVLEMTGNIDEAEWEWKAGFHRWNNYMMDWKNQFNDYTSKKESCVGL

## NP(N)(=O)NC(=O)c1ccc(F)cc1 [Test Compound 4, N-(diaminophosphinyl)-4-fluorobenzamide]
pseudocholinesterase; 1 μM
  inhibition at 1 µM: 92.8%
pseudocholinesterase; 10 μM
  inhibition at 10 µM: 99.1%
[1]; 14th day of treatment, result in words
  LDL/HDL ratio vs saline-treated control: significantly lower (p<0.05)
[1]; day 1, control 2.45
  LDL/HDL: 1.91
[1]; day 3, control 2.28
  LDL/HDL: 2.43
[1]; day 7, control 4.25
  LDL/HDL: 4.08
[1]; day 10, control 3.23
  LDL/HDL: 2.75
[1]; day 14, control 2.60, significantly different from control (p < 0.05)
  LDL/HDL: 1.50
